From ChEMBL document CHEMBL1151430, “Development of colistin-dependent Acinetobacter baumannii-Acinetobacter calcoaceticus complex” (2007)
≈ marks a conversion by molar mass, not a printed value. Calls of active or inactive are those of the source. The rule behind the calls is not given here.

Legend:
Acinetobacter [1] = assay: Antimicrobial activity against Acinetobacter baumannii-Acinetobacter calcoaceticus complex isolated from diabetic patient with calcaneal osteomyelitis by broth microdilution assay; type: functional
Acinetobacter [2] = assay: Antimicrobial activity against 8 ug/ml colistin-subcultured Acinetobacter baumannii-Acinetobacter calcoaceticus complex isolated from diabetic patient with calcaneal osteomyelitis and bacteremia by broth microdilution assay; type: functional

| Compound | MIC (Acinetobacter [1]) [µg/mL] | MIC (Acinetobacter [2]) |
| --- | --- | --- |
| NCC[C@H](O)C(=O)N[C@@H]1C[C@H](N)[C@@H](O[C@H]2O[C@H](CN)[C@@H](O)[C@H](O)[C@H]2O)[C@H](O)[C@H]1O[C@H]1O[C@H](CO)[C@@H](O)[C@H](N)[C@H]1O [AMIKACIN] | 8 (≈ 13.7 µM) | inactive |
| CC1(C)S[C@@H]2[C@H](NC(=O)[C@H](N)c3ccccc3)C(=O)N2[C@H]1C(=O)O [AMPICILLIN] | > 8 | inactive |
| CC[C@H]1OC(=O)[C@H](C)[C@@H](O[C@H]2C[C@@](C)(OC)[C@@H](O)[C@H](C)O2)[C@H](C)[C@@H](O[C@@H]2O[C@H](C)C[C@H](N(C)C)[C@H]2O)[C@](C)(O)C[C@@H](C)CN(C)[C@H](C)[C@@H](O)[C@]1(C)O [AZITHROMYCIN] | 8 (≈ 10.7 µM) | inactive |
| CC(C)(O/N=C(\C(=O)N[C@@H]1C(=O)N2C(C(=O)[O-])=C(C[n+]3ccccc3)CS[C@H]12)c1csc(N)n1)C(=O)O [CEFTAZIDIME] | > 64 | inactive |
| O=C(O)[C@H]1/C(=C/CO)O[C@@H]2CC(=O)N21 [CLAVULANIC ACID] | > 2 | inactive |
| C[C@H]1c2cccc(O)c2C(=O)C2=C(O)[C@]3(O)C(=O)C(C(N)=O)=C(O)[C@@H](N(C)C)[C@@H]3[C@@H](O)[C@@H]21.O [DOXYCYCLINE] | 8 | 1 µg/mL |
| C[C@@H](O)[C@H]1C(=O)N2C(C(=O)O)=C(SCCNC=N)C[C@H]12 [IMIPENEM ANHYDROUS] | 16 (≈ 53.4 µM) | inactive |
| CN(C)c1ccc(O)c2c1C[C@H]1C[C@H]3[C@H](N(C)C)C(O)=C(C(N)=O)C(=O)[C@@]3(O)C(O)=C1C2=O [MINOCYCLINE] | 1 (≈ 2.19 µM) | inactive |
| CC1(C)[C@H](C(=O)O)N2C(=O)C[C@H]2S1(=O)=O [SULBACTAM] | > 64 | inactive |
| CC1(C)S[C@@H]2[C@H](NC(=O)[C@H](C(=O)O)c3ccsc3)C(=O)N2[C@H]1C(=O)O [TICARCILLIN] | > 256 | inactive |
| CN(C)c1cc(NC(=O)CNC(C)(C)C)c(O)c2c1C[C@H]1C[C@H]3[C@H](N(C)C)C(O)=C(C(N)=O)C(=O)[C@@]3(O)C(O)=C1C2=O [TIGECYCLINE] | 2 (≈ 3.41 µM) | 0.12 µg/mL |
| COLISTIN | 1 | > 16 µg/mL |
| GENTAMICIN | > 8 | inactive |
| POLYMYXIN B | 1 | 4 µg/mL |
